Source: patent publication US9226912B2, “Acetyltanshinone IIA (ATA) as anticancer agent” (Nanyang Technological University, priority 2011, dated 2016)

Assays:
HeLa cells = test: ATA-induced cell death by cell counting under a microscope; format: cell-based; conditions: 10 μM or 20 μM ATA, 24 h or 48 h, YFP-Bcl-2 transfected HeLa
Procedure: HeLa cells were treated with 10 μM ATA for 12, 24, 36, and 48 h. The β-tubulin protein was probed as a loading control. […] HeLa cells were pre-treated with 2 μM pan-caspase inhibitor (z-VAD-fmk) for 2 h before ATA addition. Then 10 μM or 20 μM ATA were added. After 24 h and 48 h treatment, the number of died cells was counted under a microscope. (* p<0.01, compared with cells treated with ATA only). Control: cells without any treatment.
Overexpression of Bcl-2 inhibited ATA-induced cell death. HeLa cells transfected with either yellow fluorescent protein (YFP) (vector control) or YFP-Bcl-2 (Bcl-2) were treated with ATA at 10 or 20 μM. The percentage of cell death from YFP-positive cells was determined by cell counting under a fluorescence microscope. (* p<0.01, compared with vector control groups).
The inventors of the present invention have shown for the first time that ATA can activate the apoptotic pathway in cancer cells. […]
HeLa cells transfected with YFP-Bcl-2 or YFP only were treated with 10 μM or 20 μM ATA. After 24 h or 48 h treatment, the percentage of cell death in each sample was calculated by counting the numbers of fluorescence-positive cells either live (attached with a normal cell morphology) or dead (detached with a shrunk morphology) under a fluorescence microscope. […]

MDA-MB-435 cells = test: cells; format: cell-based; conditions: Homo sapiens, MDA-MB-435, 24 h, read-out: cell viability
Procedure: (A) ROS generation in various cancer cell lines was detected using H2DCFDA after 10 μM ATA treatment for 2 h. The number indicates the fold of increase in ROS level compared to control. (B) Antioxidant prevented ATA-induced MDA-MB-435 cell death. Various antioxidants at the indicated concentration were tested for their protective effects against ATA-induced MDA-MB-435 cell death. Cells were first pre-treated with each antioxidant for 1 h and then ATA was added into the culture medium in the presence of antioxidants. The cell viability was measured by sulforhodamine B (SRB) colorimetric assay for cytotoxicity determination (* p<0.01).
(A) PG prevented ATA-induced cell death. Three concentrations of PG were tested for their protective effects on ATA-induced cell death. The cell viability was measured by SRB assay. (* p<0.01). (B) PG protected ROS generation caused by ATA treatment. […] All the experiments were performed at least three times. The results presented in this figure are the average of three experiments. […]
Since the generation of ROS was detected in all six examined cell lines and it occurred only 2 h after ATA addition, which was at least 4-6 h ahead of Bax translocation, it was speculated that ATA-mediated ROS generation might be the cause for cell death. […] The percentage of cell death after 24 h of ATA treatment was measured using SRB cytotoxicity assay.

CC(=O)Oc1c(OC(C)=O)c2c(C)coc2c2ccc3c(c12)CCCC3(C)C [ATA, 1,6,6-trimethyl-8,9-dihydro-10,11-diacetoxyl-7H-naphtho[1,2-g][1]benzofuran]
percentage of cell death in Bcl-2 over expressing cells versus normal Bcl-2 level (HeLa cells): significantly lower
viability at 5 µM (MDA-MB-435 cells): 35%
